What was measured:
[1] = test system: horseweed (Erigeron canadensis); assay: Test A1 postemergence, horseweed; format: in vivo; conditions: Postemergence
Summary of the method: (§1)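 Pre: seeds in loam/sand blend, directed soil spray. Post: potted plants, same soil, 2–10 cm, 1–2 leaf stage. Chemicals in non-phytotoxic solvent + surfactant for both.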

[2] = test system: wheat (Triticum aestivum); assay: Test A1 postemergence, wheat; format: in vivo; conditions: Postemergence
Summary of the method: as §1

[3] = 31 g ai/ha, 0 to 100 scale (0 no effect, 100 complete control), 10 days

SMILES | Plant response rating, Horseweed [1, 3] | Plant response rating, Horseweed ([1]; 125 g ai/ha, 0 to 100 scale) | Plant response rating, Wheat [2, 3] | Plant response rating, Wheat ([2]; 125 g ai/ha, 0 to 100 scale)
Cc1cc(F)c(NS(=O)(=O)C(F)(F)F)cc1C1=NOC2(CCCC2)C1 [Compound 303] | 0 | 70 | 0 | 50
Cc1cc(C(F)(F)F)c(C2=NOC3CCCC23)cc1NS(=O)(=O)C(F)(F)F (stereo not drawn) [Compound 306] | 0 | 40 | 0 | 20
Cc1cc(C)c(N(COC(=O)C(C)C)S(=O)(=O)C(F)(F)F)cc1C1=NOC2CCCC12 (stereo not drawn) [Compound 308] | 0 | 60 | 10 | 50
Cc1cc(Br)c(NS(=O)(=O)C(F)(F)F)cc1C1=NOC2(CCCC2)C1 [Compound 309] | 10 | 20 | 0 | 40
Cc1cc(F)c(C2=NOC3CCCC23)cc1NS(=O)(=O)C(F)(F)F (stereo not drawn) [Compound 310] | 10 | 30 | 0 | 20
COc1cc(C)c(NS(=O)(=O)C(F)(F)F)cc1C1=NOC2CCCC12 (stereo not drawn) [Compound 312] | 0 | 20 | 0 | 0
COC(=O)OCN(c1cc(C2=NOC3CCCC23)c(C)cc1C)S(=O)(=O)C(F)(F)F (stereo not drawn) [Compound 315] | 20 | 60 | 30 | 70
Cc1cc(C)c(N(COC(=O)OC(C)(C)C)S(=O)(=O)C(F)(F)F)cc1C1=NOC2CCCC12 (stereo not drawn) [Compound 316] | 30 | 40 | 10 | 40
Cc1cc(C)c(N(COC(=O)N(C)C)S(=O)(=O)C(F)(F)F)cc1C1=NOC2CCCC12 (stereo not drawn) [Compound 317] | 0 | 0 | 0 | 0
CCOC1CC(c2cc(NS(=O)(=O)C(F)(F)F)c(C)cc2C)=NO1 (stereo not drawn) [Compound 318] | 20 | 50 | 50 | 70
Cc1c(C(=O)N(C)C)cc(NS(=O)(=O)C(F)(F)F)c(Cl)c1F [Compound 320] | 50 | 70 | 0 | 30
Cc1c(C(=O)N2CCOCC2)cc(NS(=O)(=O)C(F)(F)F)c(Cl)c1F [Compound 321] | 70 | 80 | 0 | 10
Cc1cc(C)c(C2=NOC(OCC(C)C)C2)cc1NS(=O)(=O)C(F)(F)F (stereo not drawn) [Compound 322] | 0 | 40 | 0 | 30
CCCCOC1CC(c2cc(NS(=O)(=O)C(F)(F)F)c(C)cc2C)=NO1 (stereo not drawn) [Compound 323] | 0 | 50 | 0 | 50
CCOC(=O)N(c1cc(C(=O)N2CCOCC2)c(C)c(C)c1C)S(=O)(=O)C(F)(F)F [Compound 325] | 90 | 90 | 30 | 50
Cc1c(C(=O)N2CCCCC2)cc(N(COC(=O)C(C)(C)C)S(=O)(=O)C(F)(F)F)c(C)c1C [Compound 329, [[(Trifluoromethyl)sulfonyl][2,3,4-trimethyl-5-(1-piperidinylcarbonyl)phenyl]amino]methyl 2,2-dimethylpropanoate] | 20 | 90 | 0 | 0
Cc1c(C(=O)N2C[C@@H](C)O[C@@H](C)C2)cc(N(COC(=O)C(C)(C)C)S(=O)(=O)C(F)(F)F)c(C)c1C [Compound 331] | 70 | 80 | 0 | 50
CCOC(=O)N(c1cc(C(=O)N2C[C@@H](C)O[C@@H](C)C2)c(C)c(C)c1C)S(=O)(=O)C(F)(F)F [Compound 332] | 60 | 80 | 10 | 50

Reference: patent publication US20230278972A1, “SUBSTITUTED HALOALKYL SULFONANILIDE HERBICIDES” (FMC Corporation, priority 2020, published 2023)
